Data: patent publication US20220226484A1, “THERAPEUTIC PEPTIDES” (COHBAR, INC., priority 2019, published 2022)
Positions of bridges follow the written chain, without caps; N, C: chain ends. Non-standard residues stand in square brackets, D forms with d. Primed or numbered codes have the meaning given here. Chains are numbered I, II in the order given. No end group written: not given here. PEG12′ = not defined here

Tests used:
Assay type in all cases: cell-based
C2C12 Mouse Myoblasts = experiment: Glucose utilization; conditions: metformin 1 mM
Protocol: The effect of the peptides on glucose metabolism can be assessed using an assay of glucose utilization in cultured cultured cells such as mouse myoblasts. Peptides were initially prepared as 10 mM stock in DMSO and used at a final concentration of 10 μM (0.1% DMSO). C2C12 mouse myoblast cell line was purchased from American Type Culture Collection (Manassas, Va.). C2C12 cultures were maintained at 37° C. in a humidified atmosphere of 5% CO2/95% air with medium changes every second day. C2C12 cells were grown in DMEM (1 g/L glucose) supplemented with 10% FBS with 100 IU/ml penicillin and 100 μg/ml streptomycin. C2C12 cells were seeded at 7,000 cells per well on 96-well plates and cultured to confluence. Once the cell reached confluence the media was changed to DMEM (1 g/L glucose) supplemented with 2% HS with 100 IU/ml penicillin and 100 μg/ml streptomycin and maintained at 37° C. in a humidified atmosphere of 5% CO2/95% air. 5 days post-induction of differentiation fresh DMEM (1 g/L glucose) supplemented with 2% HS with 100 IU/ml penicillin and 100 μg/ml streptomycin was added to cultures. Cells were maintained at 37° C. in a humidified atmosphere of 5% CO2 and 95% air for 5 hours. After 5 hours test peptides at 10 μM or controls (0.5 mM or 1 mM metformin in 1% DMSO) prepared in fresh differentiation medium were added to cells and the cultures were maintained at 37° C. in a humidified atmosphere of 5% CO2/95% air for 18-22 hours. At the end of the incubation culture media was removed from the cells and the remaining glucose concentration was measured using a Glucose Assay kit (Abcam) according to the manufacturer's instructions, using a Cytation 3 plate reader at 570 nm (BioTek, Winooski, Vt.). Glucose concentrations in the medium were calculated relative to 0.1% DMSO treated control cells. The relative standard deviation of the result for the 0.1% DMSO treated control was <20%. Metformin was used as a positive control for reduction of glucose levels (increased glucose utilization glucose levels for treatment with metformin (1 mM) treatment were <20% of the 0.1% DMSO treated control value. The results are reported in Table 7.

H4IIE Rat Hepatoma Cells = experiment: Insulin-dependent effect on glucose production by cultured rat liver cells; conditions: 24 hour; for Glucose Levels, MEAN % Control, +Insulin: peptide 10 μM + insulin 800 pM, percent of insulin (800 pM); for Glucose Levels, MEAN % Control, −Insulin: peptide 10 μM alone, percent of untreated control cells
Protocol: The effect of the peptides on glucose production was assessed in the absence and presence of insulin using an assay of glucose levels in cultured cells such as rat hepatocytes. Peptides were initially prepared as 10 mM stock in DMSO and used at a final concentration of 10 μM (0.1% DMSO). Insulin (800 pM) was used as a partial inhibitor of glucose production. H4-IIE cells purchased from ATCC (Manassas, Va.) were seeded at 100,000 cells/well in standard medium (DMEM/high glucose+10% FBS+1× Glutamax+antibiotics) on 96-well plates and allowed to adhere overnight at 37° C. in a humidified atmosphere of 5% CO2/95% air. Approximately 24 h after seeding, the medium was removed, cells rinsed with glucose free DMEM, and Glucose Production Medium (glucose free DMEM+2 mM sodium pyruvate+10 mM sodium lactate) was added. The cultures were placed at 37° C. in a humidified atmosphere of 5% CO2/95% air overnight. The next morning, the medium was removed and fresh Glucose Production Medium containing compounds was added. Insulin at 800 pM was added to control wells. Peptides (10 μM) in the absence or presence of insulin (800 pM) were added to test wells. Cells in the presence of compounds were placed at 37° C. in a humidified atmosphere of 5% CO2/95% air overnight. After 24 hour incubation, conditioned medium from each well was transferred to a fresh 96-well plate for quantitation of glucose content. Quantitation of glucose levels was determined using an Amplex Red Glucose Assay kit (Abacm; Cambridge, Mass.) according to the manufacturer's instructions using a Cytation 3 plate reader at 570 nm (BioTek, Winooski, Vt.). Absorbance values were expressed as a percent of untreated control cells (maximum glucose production) for peptide alone samples or insulin (800 pM) for peptides in the presence of insulin (800 pM. Glucose levels for insulin (800 pM) treatment were ˜80-90% of the untreated control values. The results are reported in Table 15.

3T3-L1 Mouse Adipocytes = experiment: Insulin-dependent effect on free fatty acid levels in cultured mouse adipocytes; conditions: 3 hours; for Free Fatty Acid Levels, MEAN % ISO, +Insulin: peptide 10 μM + insulin 0.25 nM, percent of isoproterenol (0.1 nM)+insulin (0.25 nM); for Free Fatty Acid Levels, MEAN % ISO, −Insulin: peptide 10 μM alone, percent of isoproterenol (0.1 nM) treated control cells
Protocol: The effect of the peptides on fatty acid metabolism was assessed in the absence and presence of insulin using an assay of free fatty acid levels in cultured cells such as mouse adipocytes. Peptides were initially prepared as 10 mM stock in DMSO and used at a final concentration of 10 μM (0.1% DMSO). […] Insulin (0.25 nM) was used as a partial inhibitor and insulin (10 nM) was used as a potent inhibitor of isoproterenol stimulated fatty acid production. Mouse 3T3-L1 cells purchased from ZenBio (Research Triangle Park, N.C.) were seeded at 3,000 cells per well on 96-well plates in Pre-Adipocyte Medium (Zen-Bio) and grown to confluence at 37° C. in a humidified atmosphere of 5% CO2/95% air. Two days after confluence, cells were placed in Adipocyte Differentiation Medium (Zen-Bio) and cultured for three additional days at 37° C. in a humidified atmosphere of 5% CO2/95% air. The culture medium was then partially replaced with Adipocyte Maintenance Medium (Zen-Bio) and the cells maintained at 37° C. in a humidified atmosphere of 5% CO2/95% air with partial medium replacement every other day. At 12 day of differentiation, 96-well cultures were transferred to Adipocyte Maintenance Medium without insulin and placed at 37° C. in a humidified atmosphere of 5% CO2/95% air for two days. Following this incubation period, the medium was removed from 14 day differentiated cultures and replaced with Assay Buffer (Zen-Bio) containing peptides (10 μM), insulin (0.25 nM or 10 nM), isoproterenol (0.1 nM) as appropriate. […] isoproterenol was added to all wells except untreated controls. Insulin at 0.1 nM and 10 nM was added to control wells. Peptides (10 μM) in the absence or presence of insulin (0.25 nM) were added to test wells. Cells in the presence of compounds were placed at 37° C. in a humidified atmosphere of 5% CO2/95% air for 3 hours. At the end of the final 3 h incubation, conditioned assay buffer was removed from each well and place in a fresh 96-well plate for quantitation of free fatty acid content. Free fatty acid concentrations in the assay buffer samples were determined using a Free Fatty Acid Assay kit (Zen-Bio) according to the manufacturer's instructions using a Cytation 3 plate reader at 540 nm (BioTek, Winooski, VD. Absorbance values were corrected for untreated background and expressed as a percent of isoproterenol (0.1 nM) treated control cells for peptides alone or isoproterenol (0.1 nM)+insulin (0.25 nM) for peptides in presence of insulin (0.25 nM). Treatment with isoproterenol […] alone was used as the free fatty acid level stimulatory control. The relative standard deviation of the isoproterenol control was <10%. […] Free fatty acid levels for insulin (10 nM) treatment were <5% of the isoproterenol control value. Free fatty acid levels for insulin (0.25 nM) treatment were 60-80% of the isoproterenol control value.

[1] = test system: WI-38 cells (human fetal lung fibroblast cells); experiment: Fibroblast-to-myofibroblast transition assay, pro-collagen I alpha 1 expression; conditions: 10 μM peptide and 5 ng/ml TGF-β, 48 h, cell lysates
Protocol: The effect of the peptides on fibrosis can be assessed in vitro using a fibroblast-to-myofibroblast transition (FMT) assay and monitoring pro-collagen I alpha 1 expression produced by cultured cells such as human fetal lung fibroblast cells. Peptides were initially prepared as 10 mM stock solutions in DMSO or 1 mM stock in H2O and were used at a final concentration of 10 μM (0-0.1% DMSO). Transforming Growth Factor beta (TGF-β) was used as a potent inducer of FMT as measured by increased pro-collagen I alpha 1 expression. Human WI-38 cell line was purchased from American Type Culture Collection (Manassas, Va.). WI-38 cells were seeded in complete medium (DMEM/high glucose (4 g/L)+10% Fetal Bovine Serum+1% penicillin/streptomycin) at 40,000 cells/well on 48-well plates and placed at 37° C. in a humidified atmosphere of 5% CO2/95% air. The next day, the medium was removed, cells were rinsed twice with HBSS, and the medium replaced with Serum Restricted Medium (DMEM/high glucose (4 g/L)+0.2% Fetal Bovine Serum+1% penicillin/streptomycin). The cultures were placed at 37° C. in a humidified atmosphere of 5% CO2/95% air overnight. Following 24 h in Serum Restricted Medium, the medium was removed, and the following was added: fresh Serum Restricted Medium alone (no TGF-β control); fresh Serum Restricted Medium containing 5 ng/ml TGF-β (TGF-β control); or fresh Serum Restricted Medium containing 10 μM peptide and 5 ng/ml TGF-β. Cells were incubated for 48 h at 37° C. in a humidified atmosphere of 5% CO2/95% air, washed twice with cold HBSS and immediately lysed. Lysis and determination of pro-collagen I alpha 1 concentrations in the cell lysates were performed using a Pro-Collagen I Alpha 1 ELISA kit (Abcam; Cambridge, Mass.) according to the manufacturer's instructions; absorbance was measured using a Cytation 3 plate reader at 450 nm (BioTek, Winooski, Vt.).

[2] = test system: Rat primary cortical neurons; experiment: Neuroprotection against Aβ (1-42) toxicity in cultured neurons; conditions: Aβ (1-42) 20 μM + BDNF 50 ng/mL, 24 hours
Protocol: Rat primary cortical neurons were collected and cultured by methods well known in the art (Singer et al., 1999 and Callizot et al., 2013). The cells were seeded at a density of 25,000 per well in 96-well plates precoated with poly-L-lysine and cultured at 37° C. in an air (95%)-CO2 (5%) incubator. The medium was changed every 2 days. The cortical neurons were treated after 11 days of culture. The A13(1-42) was prepared using the procedure described by Callizot et al., 2013 to ensure monomeric peptide. Compounds and the positive control, BDNF (50 ng/ml), were dissolved in culture medium and then pre-incubated with primary cortical neurons for 1 hour before addition of A13(1-42) (20 μM). After 24 hours of treatment, the cell culture supernatant was removed and the cortical neurons were fixed by a cold solution of ethanol (95%) and acetic acid (5%) for 5 min at −20° C. After permeabilization with 0.1% of saponin, cells were incubated for 2 hours with mouse monoclonal antibody anti-microtubule-associated-protein 2 (MAP-2) at a dilution of 1/400 in PBS containing 1% fetal calf serum and 0.1% of saponin to stain cell bodies and neurites.
This antibody was detected with Alexa Fluor 488 goat anti-mouse IgG at the dilution 1/400 in PBS containing 1% FCS, 0.1% saponin, for 1 hour at room temperature. For each condition, images were obtained using ImageXpress (Molecular Devices) with 20× magnification. The total number of cells and extent of neurite network was determined using Custom Module Editor (Molecular Devices).

**Q.** For `CN(C)C(=N)N=C(N)N` [metformin, reference compound], which “glucose levels, % of the 0.1% DMSO treated control value” (C2C12 Mouse Myoblasts) is on record?
**A.** The value was < 20%.

**Q.** With “RVIRMCLNVGLLGEL(dA)G [SEQ ID NO: 27] (chain 1 RVIRMCLNVGLLGEL[dA]G; chain 2 RVIRMCLNVGLLGEL[dA]G; disulfide I:6-II:6)” as the molecule, how does the “Glucose Levels, MEAN % Control, +Insulin” value (H4IIE Rat Hepatoma Cells; listed as 27) read?
**A.** Its value is 54.3%.

**Q.** What about the “Glucose Levels, MEAN % Control, −Insulin” value (H4IIE Rat Hepatoma Cells; listed as 27) of the same molecule?
**A.** Its value is 108%.

**Q.** And the “Free Fatty Acid Levels, MEAN % ISO, +Insulin” value (3T3-L1 Mouse Adipocytes; listed as 27)?
**A.** The value was 28.2%.

**Q.** What about the “Free Fatty Acid Levels, MEAN % ISO, −Insulin” value (3T3-L1 Mouse Adipocytes; listed as 27) of the same molecule?
**A.** The value was 94.5%.

**Q.** What about the “Procollagen I Alpha 1 Mean (SEM)” value [1] of the same molecule?
**A.** Its value is 4120 (677) pg/mL.

**Q.** Which “Glucose Levels, MEAN % Control, +Insulin” value (H4IIE Rat Hepatoma Cells) does the source give for “RVIRMCLNVGLNGEL(dA)E (RVIRMCLNVGLNGEL[dA]E) [SEQ ID NO: 20]” here?
**A.** The value was 75.1%.

**Q.** And the “Glucose Levels, MEAN % Control, −Insulin” value (H4IIE Rat Hepatoma Cells)?
**A.** Its value is 110%.

**Q.** And the “Free Fatty Acid Levels, MEAN % ISO, +Insulin” value (3T3-L1 Mouse Adipocytes)?
**A.** Its value is 97.5%.

**Q.** What about the “Free Fatty Acid Levels, MEAN % ISO, −Insulin” value (3T3-L1 Mouse Adipocytes) of the same molecule?
**A.** The value was 102%.

**Q.** And the “Procollagen I Alpha 1 Mean (SEM)” value [1]?
**A.** Its value is 4680 (377) pg/mL.

**Q.** With “{PEG12}KRVIRMCLGVGLLGDLAG ([PEG12′]KRVIRMCLGVGLLGDLAG) [SEQ ID NO: 16]” as the molecule, how does the “Glucose Levels, MEAN % Control, +Insulin” value (H4IIE Rat Hepatoma Cells) read?
**A.** The value was 79.8%.

**Q.** And the “Glucose Levels, MEAN % Control, −Insulin” value (H4IIE Rat Hepatoma Cells)?
**A.** The value was 104%.

**Q.** And the “Free Fatty Acid Levels, MEAN % ISO, +Insulin” value (3T3-L1 Mouse Adipocytes)?
**A.** Its value is 33.4%.

**Q.** What about the “Free Fatty Acid Levels, MEAN % ISO, −Insulin” value (3T3-L1 Mouse Adipocytes) of the same molecule?
**A.** Its value is 54.6%.

**Q.** And the “Procollagen I Alpha 1 Mean (SEM)” value [1]?
**A.** Its value is 3980 (569) pg/mL.

B1: BDNF: positive control, BDNF (50 ng/ml) (protein, UniProt P23560 19-247, looked up)
Neurotrophic factor BDNF …: APMKEANIRGQGGLAYPGVRTHGTLESVNGPKAGSRGLTSLADTFEHVIEELLDEDQKVRPNEENNKDADLYTSRVMLSSQVPLEPPLLFLLEEYKNYLDAANMSMRVRRHSDPARRGELSVCDSISEWVTAADKKTAVDMSGGTVTVLEKVPVSKGQLKQYFYETKCNPMGYTKEGCRGIDKRHWNSQCRTTQSYVRALTMDSKKRIGWRFIRIDTSCVCTLTIKRGR
**Q.** Which results are given for B1?
**A.** Percent Protection of Neuronal Network [2]: 95%; Percent Survival of Neurons [2]: 98%
